# Measured values published in PubChem BioAssay (NCI).
# Values joined by “and” are separate entries in the source; they are usually repeats but may differ in a detail not shown here. Equal entries are not always repeated.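 Dose response: 5 concentrations. Exposure: 48 h. Format: 96-well plates. Endpoint: linear interpolation; highest concentration if not reached. GI50 marks 50% less growth. TGI denotes the concentration required for complete inhibition of growth.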
# Experiments:
# Experiment in all cases: NCI anticancer screen, dose series, 48 h
# [1] = test system: MDA-MB-231 breast
# [2] = test system: SK-MEL-2 melanoma
# [3] = test system: T-47D breast
# [4] = test system: SW-620 colon
# [5] = test system: DU-145 prostate
# [6] = test system: UO-31 renal
# [7] = test system: EKVX NSCLC
# [8] = test system: NCI-H23 lung
# [9] = test system: HCT-116 colon
# [10] = test system: KM12 colon
Structure (SMILES),TGI [1] [µM],TGI [2],TGI [3],TGI [4],TGI [5],TGI [6] [µM],TGI [7],TGI [8],TGI [9],TGI [10],GI50 [1] [µM],GI50 [2] [µM],GI50 [3] [µM],GI50 [4] [µM],GI50 [5] [µM],GI50 [6] [µM],GI50 [7] [µM],GI50 [8] [µM],GI50 [9],GI50 [10] [µM]
COc1ccc2c(c1OC)C(C(Cl)(Cl)Cl)N1CCc3cc4c(cc3C1=C2)OCO4 (configuration not stated),> 100,39.4 µM,> 100 µM,> 100 µM,84.7 µM,> 100,> 100 µM,> 100 µM,27.9 µM,20.3 µM,,,,,,,,,,
Cc1c(N)nc(C(CC(N)=O)NCC(N)C(N)=O)nc1C(=O)NC(C(=O)NC(C)C(O)C(C)C(=O)NC(C(=O)NCCc1nc(-c2nc(C(=O)NCCCNC(C)c3ccccc3)cs2)cs1)C(C)O)C(OC1OC(CO)C(O)C(O)C1OC1OC(CO)C(O)C(OC(N)=O)C1O)c1cnc[nH]1 (configuration not stated),> 100,30.6 µM and > 100 µM,50 µM and > 100 µM,50 µM and > 100 µM,39.2 µM and 55 µM,,50 µM and > 100 µM,8.37 µM and 64.6 µM,49.4 µM and > 100 µM,50 µM and > 100 µM,> 100,66.5,23.8,24.8,10.5,2.9,> 100,3.31,1.76 µM,44.1
CC([C@H]1CC=C2C3CCC4=C[C@@H](N(C)C)CC[C@]4(C)C3CC[C@@]21C)N(C)C (some centres not stated),7.9,21 µM,7.77 µM,8.24 µM,20.4 µM,5.54,18.3 µM,14.8 µM,2.76 µM,11.9 µM,2.33,8.23,1.17,2.49,6.63,1.95,1.99,3.15,1.07 µM,2.77
O=C(c1ccco1)c1c(C(F)(F)F)n([O-])c2cc(C(F)(F)F)ccc2[n+]1=O,2.67,6.73 µM,1.47 µM,1.1 µM,1.21 µM,1.02,2.36 µM,2.62 µM,1.31 µM,1.19 µM,1.08,2.62,0.355,0.498,0.549,0.517,0.859,1.15,0.23 µM,0.516
COc1cc(C(=O)O[C@H](C(=O)NCCN(C)CCNC(=O)[C@@H](OC(=O)c2cc(OC)cc3c(C)cccc23)[C@]2(C)CO2)[C@]2(C)CO2)c2cccc(C)c2c1,1.58,> 100 µM,1.7 µM,0.152 µM,0.162 µM,> 100,1.72 µM,0.0137 µM,2.93 µM,0.465 µM,0.264,0.253,0.0924,< 0.01,< 0.0328,0.417,0.106,< 0.01,0.0751 µM,0.0549
NC(N)=NC(N)=NCCCc1ccco1,198,115 µM,319 µM,125 µM,> 500 µM,195,,> 500 µM,335 µM,> 500 µM,68.8,47.5,71.7,18.2,140,65.2,,463,90.2 µM,109
CC(C)=CC(=O)N[C@H]1CC[C@]2(C)C3CC[C@]4(C)C(C(C)N(C)C)=CCC4C3CCC2[C@H]1O (some centres not stated),9.79,28.7 µM,9.59 µM,4.55 µM,21.4 µM,4.51,23.2 µM,22.7 µM,4.21 µM,14.2 µM,3.34,12.4,2.58,1.97,8.68,1.88,6.38,9.27,1.77 µM,3.48
C[C@H]1COCCN1c1cc(C2(S(=O)(=O)C3CC3)CC2)nc(-c2ccc(NC(=S)NCCO)cc2)n1,26.2,0.517 µM,0.0224 µM,> 100 µM,> 100 µM,0.524,3.76 µM,30.6 µM,21.4 µM,> 100 µM,0.0327,0.0289,< 0.01,0.0634,0.0919,0.0272,0.0267,0.036,0.0985 µM,0.0494
CN(C)CCCC1(c2ccc(F)cc2)OCc2cc(-c3cc4ccccc4s3)ccc21 (configuration not stated),2.95,3.46 µM,3.75 µM,3.4 µM,3.24 µM,2.49,3.07 µM,3.34 µM,3.22 µM,3.45 µM,1.52,1.8,2.04,1.74,1.79,1.24,1.66,1.76,1.67 µM,1.74
C=C1C(=O)O[C@H]2[C@H]1CC/C(COC(=O)CCCc1c[nH]c3ccccc13)=C\CC[C@@]1(C)O[C@@H]21,3.7,5.39 µM,4.81 µM,4.36 µM,3.18 µM,2.73,5.01 µM,3.47 µM,2.36 µM,4.31 µM,1.78,1.96,2.17,1.84,1.67,1.41,2.02,1.72,0.963 µM,1.89
Nc1nc(SCc2ccccc2Cl)cc(C(=O)O)n1,> 100,> 100 µM,> 100 µM,> 100 µM,> 100 µM,> 100,> 100 µM,> 100 µM,> 100 µM,> 100 µM,,,,,,,,,,
Cn1c(-c2ccccc2)c(/C=C/C2=[N+](C)c3ccccc3C2(C)C)c2ccccc21,22.8,4.19 µM,9.07 µM,12.5 µM,12.7 µM,7.3,10.4 µM,5.17 µM,7.11 µM,1.94 µM,2.18,1.13,0.34,1.52,1.87,2.23,0.397,0.784,0.593 µM,0.429
CCC1(OC(=O)CN)C(=O)OCc2c1cc1n(c2=O)Cc2cc3ccccc3nc2-1 (configuration not stated),6.04,0.932 µM and 0.407 µM,0.916 µM,> 100 µM,0.551 µM,0.174,17.4 µM,0.15 µM and 0.0424 µM,0.265 µM and 0.431 µM,0.754 µM and 4.01 µM,0.652,0.492,0.0426,0.0448,0.00536,,0.164,0.0191,0.0519 µM and 0.0222 µM,0.022
Nc1ccc(COC(O)CN2CCCCC2)cc1[N+](=O)[O-] (configuration not stated),> 100,> 100 µM,> 100 µM,> 100 µM,> 100 µM,> 100,,> 100 µM,> 100 µM,> 100 µM,,,,,,,,,,
COC1=CC(c2ccc[nH]2)=N/C1=C\c1[nH]c(C)c(CC(=O)OCc2ccccc2)c1C,0.859,0.51 µM,1.08 µM,1.79 µM,10.9 µM,0.398,2.06 µM,2.98 µM,1.05 µM,2.28 µM,0.144,0.198,0.251,0.366,0.324,0.193,0.351,0.399,0.219 µM,0.272
COc1ccc(/C=C2\SC(=Nc3ccccc3)NC2=O)cc1,38.7,82.4 µM,> 100 µM,24.4 µM,71.5 µM,> 100,,80.5 µM,12.9 µM,22 µM,4.58,29.3,6.46,3.38,11.4,6.97,,8.6,3.4 µM,4.37
CC(=O)O[C@H]1C(=O)[C@@]2(C)[C@H]([C@H](OC(=O)c3ccccc3)[C@]3(O)C[C@H](OC(=O)[C@H](OC(=O)OC[C@H]4COC(C)(C)O4)[C@@H](NC(=O)c4ccccc4)c4ccccc4)C(C)=C1C3(C)C)[C@]1(OC(C)=O)CO[C@@H]1C[C@@H]2O,> 7.74,> 33.3 µM,> 33.3 µM,> 33.3 µM,,> 33.3,> 33.3 µM,> 33.3 µM,> 33.3 µM,> 33.3 µM,0.0736,0.0978,0.0437,0.0138,0.029,0.738,0.113,0.0476,0.00596 µM,0.00943
CCCCCCCC/C=C1\CCC(CN2CCOCC2)C1=O (configuration not stated),4.42,28.8 µM,4.57 µM,8.39 µM,17.9 µM,16.6,32.9 µM,24.4 µM,13.6 µM,12.4 µM,,,,,,,,,,
COc1ccc(NC(=O)c2sc3nc(C)c(C(=O)/C=C/c4cccc(OC)c4)cc3c2N)cc1,> 50,18 µM,> 50 µM,3.79 µM,5.66 µM,1.76,32.5 µM,18.6 µM,1.7 µM,5.06 µM,1.66,1.54,1.46,1.26,1.64,0.842,5.7,2.35,0.773 µM,1.45
COc1ccc(/C(C#N)=C/c2cc(OC)c(OC)c(OC)c2)cc1,> 100,82.2 µM,67.6 µM,> 100 µM,> 100 µM,68.8,,88.4 µM,> 100 µM,> 100 µM,14.1,21.9,17,13.6,40.1,15.3,,20.1,22.9 µM,12.7
O=c1oc2cc(OC/C(=N/O)c3ccc(F)cc3)ccc2c2ccccc12,30.3,40 µM,> 100 µM,44.6 µM,34.7 µM,35.2,42.5 µM,34.2 µM,29.2 µM,53.5 µM,14.8,21.3,35.4,23.2,18.5,18.7,20.9,19.1,15.8 µM,21.2
Cn1nc(C(F)(F)F)c(-c2cc(C(F)(F)F)cc(C(F)(F)F)c2)c1-c1ccc(OCc2ccc(Cl)cc2)cc1O,5.69,4.09 µM,8.4 µM,11 µM,14.8 µM,4.28,,6.93 µM,3.81 µM,10.7 µM,2.15,1.73,1.54,3,3.9,1.89,,1.64,1.62 µM,2.64
CC(=O)/C=C/C1=C(c2csc3ccccc23)c2ccccc2CC1,69.5,40.9 µM,> 100 µM,> 100 µM,> 100 µM,41.2,> 100 µM,,95 µM,33.8 µM,22.8,15.2,22.6,28,29.4,11.6,30.4,,6.16 µM,14.1
Cc1nc2ccccn2c1NC(=O)NNC(=S)Nc1ccc(F)cc1,> 100,> 100 µM,> 100 µM,> 100 µM,> 100 µM,> 100,> 100 µM,,> 100 µM,> 100 µM,> 100,> 100,> 100,> 100,> 100,> 100,> 100,,> 100 µM,> 100
O=C1C(=O)c2ccccc2C(O)=C1CCCc1ccc(C2CCCCC2)cc1,31,,35.7 µM,19.5 µM,36.5 µM,23.2,20.9 µM,61.4 µM,14.3 µM,17.9 µM,10.4,,3.2,4.36,5.17,5,3.22,4.14,2.01 µM,4.16
